Where two headings read alike, the source gives them in different places.
Target: T1, constitutive RAS GTPAse activity in H358 cells (Homo sapiens, UniProt P01116, G12C)
T1 construct: host or cells: H358 human lung cancer cells
Test: H358 Cellular Active RAS GTPase ELISA
Format: cell-based
Details: 2 hr
Description: This assay is used to measure the ability of test compounds to inhibit constitutive RAS GTPAse activity in human lung cancer cells H358 (ATCC CRL-5807). The RAS GTPase ELISA kit (Active Motif Cat #52097) contains a 96-well plate pre-coated with glutathione in order to capture a kit-supplied GST-Raf-RBD protein. Activated RAS (GTP-bound) in cell extracts specifically bind to the Raf-RBD. Bound RAS is detected with a primary antibody that recognizes human KRas. A secondary antibody conjugated with HRP recognizes the primary antibody and a development solution provides a chemiluminescent readout.
H358 cells are plated at 80,000 cells/well in 90 μL serum free media (RPMI 1640, GIBCO) and incubated overnight at 37° C./5% CO2. The next morning, 10 μL of serially-diluted (3-fold) test compounds (500 μM top concentration) and 10 μL of controls (Maximum signal wells: 5% DMSO and Minimum signal wells: 500 μM LSN3429410 as an inhibitor) are added to the cell plate and incubated for 2 hr at 37° C./5% CO2. Complete Lysis/Binding Buffer is prepared containing Protease Inhibitor cocktail and GST-Raf-RBD and stored on ice. One hour before cell plate incubation is completed, 50 μL of GST-Raf-RBD is diluted in lysis/binding buffer, and buffer is added to the ELISA assay plate and which is incubated for 1 hour at 4° C. with gently rocking. After 2 hr, the cells are washed with 100 μL ice-cold PBS and lysed with 100 μL lysis/binding buffer. The cell plate is shaken for 10 min at RT. The cell plate is then centrifuged at 1500 rpm for 10 min at RT. During this time, 1× Wash Buffer is prepared at RT and then is used to wash (3×100 μL) the GST-Raf-RBD coated assay plate. After washing, 50 μL of cell lysate is added to the GST-Raf-RBD coated assay plate and incubated for 1 hour at RT with gentle shaking. During this incubation period, 1× Antibody Binding Buffer is prepared and brought to RT. The assay plate is washed 3×100 μL with 1× Wash Buffer and then 50 μL of Primary Antibody (diluted 1:500 in 1× Antibody Binding buffer) is added. The plate is incubated for 1 hour at RT. The assay plate is washed 3×100 μl with 1× Wash Buffer and then 50 μL of Secondary Antibody (diluted 1:5000 in 1× Antibody Binding buffer) is added and incubated for 1 hour at RT. The assay plate is washed 4×100 μL with 1× Wash buffer and then 50 μL of chemiluminescent working solution is added at RT. The assay plate is then read on an EnVision™ Plate Reader (Perkin Elmer) using a luminescence program.
The signal is converted to percent inhibition using the following equation: % Inhibition=100−[(Test Compound Signal−Median Minimum Signal)/(Median Maximum Signal−Median Minimum Signal)×100]. The Maximum signal is a control well without inhibitor.

T1 sequence (P01116 1-188 isoform P01116-2 G12C): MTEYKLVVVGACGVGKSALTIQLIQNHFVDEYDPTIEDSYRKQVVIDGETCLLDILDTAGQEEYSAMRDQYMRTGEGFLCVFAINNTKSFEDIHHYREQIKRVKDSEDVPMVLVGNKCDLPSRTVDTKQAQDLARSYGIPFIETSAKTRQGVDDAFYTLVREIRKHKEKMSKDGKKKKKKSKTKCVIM

## C=CC(=O)N1CCN(c2ncnc3c(F)c(-c4ccc(F)c5sc(N)nc45)c(Cl)cc23)CC1 [Example 1, 1-{4-[7-(2-Amino-7-fluoro-1,3-benzothiazol-4-yl)-6-chloro-8-fluoroquinazolin-4-yl]piperazin-1-yl}prop-2-en-1-one]
read-out: RAS-GTP
  IC50: 37.1 nM
read-out: relative IC50
  IC50: 37 nM

— patent US10968214B2, “KRas G12C inhibitors” (Eli Lilly and Company, priority 2018, dated 2021)
